Data from patent US20050142634A1, “Novel modulator of non-genomic activity of nuclear receptors (mnar) and uses thereof” (Wyeth, priority 2001, published 2005).

Assays:
[1] = system: ERα; test: MNAR effect on ER-mediated transcription, 2xERE-tk-luciferase reporter in HepG2 cells; format: cell-based; settings: for effect of kinase inhibitor on MNAR stimulation of ER activity / effect of Src inhibitor on MNAR stimulation of E2 induced ERα activity / MNAR stimulation of ER activity with ligand: HepG2, ERα and MNAR; for effect of kinase inhibitor on MNAR stimulation of ER activity: 10 nM E2 plus 1 μM inhibitor; for effect of Src inhibitor on MNAR stimulation of E2 induced ERα activity: treated for 24 hr with 17β-estradiol and inhibitor; for MNAR stimulation of ER activity with ligand: ligand at 10 nM
Description: Transient Transfection Analysis: HepG2 and COS-7 cells were routinely maintained in DMEM supplemented with 10% FBS. Either 50,000 cells per well of HepG2 or 30,000 per well of COS-7 were seeded in 96 well plates in DMEM without phenol red supplemented with 10% charcoal stripped serum. 100 ng of 2×ERE-tk-Luc reporter, 10 ng of pCMV-O-gal internal control, either 1 ng of pcDNA3.1 ERα or 5 ng of pcDNA3.1 ERβ expression vector with or without increasing amount of pcDNA3.1 MNAR or pcDNA3.1 SRC3 expression plasmids were transfected using 0.5 ul of lipofectamine 2000 (Life Technologies, Rockville, Md.) according to protocol. Cells were stimulated either with 10^−8M 17-b-estradiol, tamoxifen, or ICI for 24 hr before being processed for luciferase and β-Galactosidase activity.
(§1) A—HepG2 cells were transfected with expression plasmids for ERα, MNAR and/or SRC3. […] B—HepG2 cells were transfected with expression vectors for ERαand MNAR. […] (SEQ ID NO: 11) from Sequitur, Inc. (Natick, Mass.) or reverse control (C) oligomers complexed with 1 μg/ml of Lipofectamine 2000 in white media.
To evaluate if MNAR overexpression affects transcriptional activity of ER, HepG2 cells were transiently cotransfected with plasmids for expression of ERα and MNAR.

[2] = system: cSrc; test: Kinase reaction on immunoprecipitates from MCF-7 cells ([32P]γATP); format: cell-based, human; settings: material coprecipitated with anti-Src and anti-ER antibodies from MCF-7 cells, E2 10 nM 5 minutes
Description: FLAG-MNAR (panel A), cSrc (panel B), or ERα (panels C, D and E) were immunoprecipitated from the cell extracts using corresponding antibodies. Immunoprecipitates were incubated with [32P]γATP for 30 minutes at 30° C. (panels A-C), or with [32P]-γATP and enolase (panel D). Kinase reaction was stopped by boiling in 2×SDS buffer. Phosphorylated material was loaded on SDS gel, which was then dried and subjected to autoradiography.
We evaluated whether MNAR and ER interacted and activated Src kinase in MCF-7 cells. […] Flag-MNAR (FIG. 10, panel A), ERα (FIG. 10, panel C and D), and csrc (FIG. 10, panel B) were immunoprecipitated from the cell extracts using their corresponding antibodies. […] Immunoprecipitates were incubated with [32P]γATP at 30° C. for 30 minutes. Reaction was stopped by boiling in 2×SDS buffer and resolved on a SDS PMG.

[3] = system: cSrc; test: Analysis of cSrc enzymatic activity with acidified enolase as substrate; format: biochemical; settings: acid denatured enolase as substrate
Description: Analysis of cSrc Enzymatic Activity. […] Before reaction proteins were incubated for 1 hr at 4° C. Phosporylation reaction was started by addition of [32P]-γATP and continued at 30° C. for 10 min. Reaction was stopped by addition of 2×SDS buffer. Phosphorylated proteins were separated by SDS-PAGE and the dried gel was subjected to autoradiography.

[4] = system: Erk 1 and 2; test: E2 induced Erk kinase 1 and 2 activation in MCF7 cells (Western blotting); format: cell-based, human; settings: for effect on E2 induced Erk 1 and 2 activation: MCF7 cells overexpressing MNAR or treated with 100 nM antisense, 10 nM E2 5 minutes; for level of total Erk 1 and 2: Erk1/2 antibodies
Source text: (§2) It has been previously reported that activation of Src by estradiol triggers Ras/Erks kinase pathway. We expected that MNAR induced Src activation may lead to activation of Erk kinases 1 and 2. […] MNAR antisense oligonucleotide (SEQ ID NO:11) was developed at Sequitur Inc. (Natick, Mass.).

[5] = system: ER; test: MNAR structural-functional analysis, ER-stimulated transcription in HepG2 cells; format: cell-based; settings: MNAR deletion mutants transfected into HepG2 cells
Description: To delineate the regions of MNAR that are responsible for interaction with estrogen receptor and c-Src tyrosine kinase, we performed functional evaluation of MNAR deletion mutants (FIG. 12). A series of C-terminal truncations of MNAR was generated using specially designed oligonucleotides, by amplifying appropriate fragments and cloning them into appropriate expression vectors. These mutants were tested for their abilities to enhance ER-stimulated transcription when transfected into HepG2 cells.
At the C-terminus, MNAR contains a region rich in both proline and glutamic acid. To delineate the regions on MNAR responsible for interaction with estrogen receptors and c-src tyrosine kinase, a functional evaluation of MNAR deletion mutants was performed (FIG. 12). A series of C-terminal truncations of MNAR was generated using specially designed oligonucleotides, by amplifying appropriate fragments and cloning them into appropriate expression vectors. These mutants were tested for their abilities to enhance ER-stimulated transcription when transfected into HepG2 cells.

[6] = system: ERα
Description: MNAR-Nuclear receptors interaction analysis was performed. […] Formed complexes were isolated using anti-FLAG sepharose beads, boiled in 2×SDS buffer and loaded on SDS gel.
With full-length flag-MNAR, we further evaluated whether MNAR interaction with estrogen receptors is affected by ER ligands. […] Formed complexes were isolated using anti-FLAG sepharose beads.

[7] = system: Cathepsin D; test: ER-mediated gene expression in MCF-7 cells (TaqMan); format: cell-based, human; settings: 100 nM antisense
Description: as §1, with “MNAR. […] C—MCF-7 cells were transfected with 100 nM antisense (AS)” for “MNAR.”, “media. […] MNAR antiserum was generated against […] peptide encoding amino acids 509-520 ([…]) (SEQ ID NO: 31) of the MNAR.” for “media.”
(§3) We next used an antisense approach to assess MNAR's role in estrogen regulation of gene transcription. […] MCF-7 cells were transfected with 100 nM antisense or reverse control oligomers. […] TaqMan analysis was performed using a primer/probe set designed to target MNAR, pS2 and Cathepsin D—two genes known to be regulated by estrogens in MCF-7 cells. FIG. 9C presents the levels of MNAR, pS2 and Cathepsin D mRNA expression, normalized to GAPDH mRNA.

[8] = system: pS2; test: as above; format: cell-based, human; settings: 100 nM antisense
Description: as §1, with “MNAR. […] C—MCF-7 cells were transfected with 100 nM antisense (AS)” for “MNAR.”, “media. […] MNAR antiserum was generated against […] peptide encoding amino acids 509-520 ([…]) (SEQ ID NO: 31) of the MNAR.” for “media.”
as §3

[9] = system: MNAR; test: MNAR expression in MCF-7 cells (TaqMan, Western blotting); format: cell-based, human
Description: as §1, with “MNAR. […] C—MCF-7 cells were transfected with 100 nM antisense (AS)” for “MNAR.”, “media. […] MNAR antiserum was generated against […] peptide encoding amino acids 509-520 ([…]) (SEQ ID NO: 31) of the MNAR.” for “media.”
as §2, §3

[10] = system: cSrc; settings: ERα with MNAR and cSrc, 1 μM E2, compared to unliganded ERα
Source text: ER-MNAR-cSrc Interaction Analysis. […] Formed complexes were isolate by pulled-down with anti-cSrc or anti-Lck antibodies and protein A agarose, boiled in 2×SDS buffer and resolved on an SDS-PAGE gel. Gel was dried and subjected to autoradiography.
To address this question, we have used in vitro transcribed/translated estrogen receptors ERα, ERβ and MNAR. […] Formed complexes were pulled-down with anti-cSrc or anti-Lck antibodies and protein A sepharose and then resolved on an SDS gel.

CC(C)(C)n1nc(-c2ccc(Cl)cc2)c2c(N)ncnc21 [PP2]
effect of kinase inhibitor on MNAR stimulation of ER activity [1]: abrogate MNAR stimulation of ER activity
effect of Src inhibitor on MNAR stimulation of E2 induced ERα activity [1]: inhibited MNAR stimulation

MNAR: novel ER interacting protein, 1130 amino acids, cloned from MCF-7 cells
phosphorylation of endogenous protein of approximately 34 kDa [2]: dramatically augmented
ERα transcriptional activity on overexpression ([1]; HepG2 cells transfected with expression plasmid, 2xERE-tk-reporter): stimulation of ERα transcriptional activity
cSrc enzymatic activity [3]: strongly stimulates
effect on E2 induced Erk 1 and 2 activation [4]: significantly enhanced

mutant 3: MNAR mutant containing aa 1-278
ability to enhance ER-stimulated transcription [5]: still able to augment ER transcriptional activity

C[C@]12CC[C@@H]3c4ccc(O)cc4C[C@@H](CCCCCCCCC[S+]([O-])CCCC(F)(F)C(F)(F)F)[C@H]3[C@@H]1CC[C@@H]2O (stereo partly drawn) [ICI 182,780]
MNAR stimulation of ER activity with ligand [1]: do not support MNAR stimulation of ER activity

mutant 4: MNAR mutant containing aa 1-189
ability to enhance ER-stimulated transcription [5]: still able to augment ER transcriptional activity

O=c1c(-c2ccc(O)cc2)coc2cc(O)cc(O)c12 [genesteine, genistein]
effect of Src inhibitor on MNAR stimulation of E2 induced ERα activity [1]: inhibited MNAR stimulation

CC/C(=C(\c1ccc(O)cc1)c1ccc(OCCN(C)C)cc1)c1ccccc1 [4(OH) tamoxifen]
ERα interaction with MNAR [6]: inhibited
MNAR stimulation of ER activity with ligand [1]: do not support MNAR stimulation of ER activity

MNAR antisense oligonucleotides: antisense (AS) CATGGAGATGTCCCGGAACAGTGCA (SEQ ID NO: 11) from Sequitur, Inc., targets MNAR (listed as DNA, chemistry not given here; listed as Homo sapiens)
basal level of Cathepsin D expression [7]: did not significantly affect
E2-stimulated Cathepsin D expression ([7]; 10 nM E2): dramatic reduction
basal level of pS2 expression [8]: did not significantly affect
E2-stimulated pS2 expression ([8]; 10 nM E2): dramatic reduction
MNAR level ([9]; MCF7 cells, 100 nM antisense, Western blotting with MNAR antibodies): attenuated
MNAR expression ([9]; MCF-7 cells, 100 nM antisense, TaqMan and Western Blotting): significantly inhibited
effect on E2 induced Erk 1 and 2 activation [4]: attenuated
level of total Erk 1 and 2 ([4]; MCF7 cells): Neither treatment with MNAR antisense oligonucleotides nor short treatment with E2 affected

COc1cccc(-c2cc(=O)c3ccccc3o2)c1N [PD98059]
effect of kinase inhibitor on MNAR stimulation of ER activity [1]: abrogate MNAR stimulation of ER activity

mutant 2: MNAR mutant containing aa 1-469
ability to enhance ER-stimulated transcription [5]: still able to augment ER transcriptional activity

C[C@]12CC[C@@H]3c4ccc(O)cc4CC[C@H]3[C@@H]1CC[C@@H]2O [E2, 17β-estradiol, reference compound]
phosphorylation of endogenous protein of approximately 34 kDa [2]: stimulated
MNAR mRNA expression ([9]; MCF-7 cells, 10 nM E2 24 hours, normalized to GAPDH mRNA): substantially stimulated
Src-ER-MNAR complex formation [10]: significant stimulation
Erk 1 and 2 phosphorylation ([4]; MCF7 cells, 10 nM E2 for 5 minutes): Strong E2 induced stimulation
level of total Erk 1 and 2 ([4]; MCF7 cells): Neither treatment with MNAR antisense oligonucleotides nor short treatment with E2 affected
